From ChEMBL document CHEMBL4651402, “Screening of ~5500 FDA-approved drugs and clinical candidates for anti-SARS-CoV-2 activity” (2021)

System: SARS-CoV-2
Experiment: microbe, parasite or virus in culture
Details: Severe acute respiratory syndrome coronavirus 2, Vero C1008, 48 h

SMILES | IC50 [µM] | IC50 (read-out: pIC50 (converted)) [µM]
COc1ccc2[nH]cc(CCNC(C)=O)c2c1 [MELATONIN] | > 20 | > 20
CCCCC/C=C/C/C=C/CCCCCCCC(=O)NC(C)c1ccccc1 (stereo not given) [MELINAMIDE] | > 20 | > 20
Cc1cnc(NC(=O)C2=C(O)c3ccccc3S(=O)(=O)N2C)s1 [MELOXICAM] | > 20 | > 20
CC1CCN(CCCC(=O)c2ccc(F)cc2)CC1 [MELPERONE] | > 20 | > 20
CC12CC3CC(C)(C1)CC(N)(C3)C2 [MEMANTINE] | > 20 | > 20
CC1=CC(=O)c2ccccc2C1=O [MENADIONE] | > 20 | > 20
CC(C)=CCC/C(C)=C/CC1=C(C)C(=O)c2ccccc2C1=O [MENAQUINONE-2] | > 20 | > 20
CC(C)=CCC/C(C)=C/CC/C(C)=C/CC/C(C)=C/CC1=C(C)C(=O)c2ccccc2C1=O [MENATETRENONE] | > 20 | > 20
CC1CCC(C(C)C)C(O)C1 (stereo not given) [MENTHOL] | > 20 | > 20
C/N=C(/NC)NCc1ccc(OC)cc1 [MEOBENTINE] | > 20 | > 20
CN1CCCC(CN2c3ccccc3Sc3ccccc32)C1 (stereo not given) [MEPAZINE] | > 20 | > 20
C[N+]1(C)CCCC(OC(=O)C(O)(c2ccccc2)c2ccccc2)C1 (stereo not given) [MEPENZOLATE] | > 20 | > 20
CCOC(=O)C1(c2ccccc2)CCN(C)CC1 [MEPERIDINE] | > 20 | > 20
Cc1ccccc1OCC(O)CO (stereo not given) [MEPHENESIN] | > 20 | > 20
COc1ccccc1OCC1CNC(=O)O1 (stereo not given) [MEPHENOXALONE] | > 20 | > 20
CNC(C)(C)Cc1ccccc1 [MEPHENTERMINE] | > 20 | > 20
CCC1(c2ccccc2)C(=O)NC(=O)N(C)C1=O (stereo not given) [MEPHOBARBITAL] | > 20 | > 20
Cc1cc(CCN2CCN(c3cccc(Cl)c3)CC2)n[nH]1 [MEPIPRAZOLE] | > 20 | > 20
Cc1cccc(C)c1NC(=O)C1CCCCN1C (stereo not given) [MEPIVACAINE] | > 20 | > 20
COc1cccc([C@H]2C[C@@H](N[C@H](C)c3ccccc3)C(=O)N2c2ccc(C(F)(F)F)cc2)c1 [MEPPEP] | > 20 | > 20

SMILES | IC50 [µM] | IC50 (read-out: pIC50 (converted)) [µM]
CCCC(C)(COC(N)=O)COC(N)=O [MEPROBAMATE] | > 20 | > 20
CCCNC(C)(C)COC(=O)c1ccccc1 [MEPRYLCAINE] | > 20 | > 20
CCC1(c2cccc(O)c2)CCCCN(C)C1 (stereo not given) [MEPTAZINOL] | > 20 | > 20
COc1ccc(O)cc1 [MEQUINOL] | > 20 | > 20
Sc1ncnc2nc[nH]c12 [MERCAPTOPURINE ANHYDROUS] | > 20 | > 20
Cc1ccc(C(=O)Nc2ccc(Oc3cc4cnn(C)c4cc3-c3cn[nH]c3)c(F)c2)c(=O)n1-c1ccc(F)cc1 [MERESTINIB] | > 20 | > 20
CC(C)C(=O)OC[C@H]1O[C@@H](n2ccc(N)nc2=O)[C@](C)(F)[C@@H]1OC(=O)C(C)C [MERICITABINE] | > 20 | > 20
COc1cc(NC(=O)Nc2cccc(CNC(=O)O[C@H]3CCOC3)c2)ccc1-c1cnco1 [MERIMEPODIB] | > 20 | > 20
C[C@@H](O)[C@H]1C(=O)N2C(C(=O)O)=C(S[C@@H]3CN[C@H](C(=O)N(C)C)C3)[C@H](C)[C@H]12 [MEROPENEM] | > 20 | > 20
Nc1ccc(O)c(C(=O)O)c1 [MESALAMINE] | > 20 | > 20
CC1CC2Oc3ccc(Cl)cc3C(=O)N2O1 (stereo not given) [MESECLAZONE] | > 20 | > 20
CN1CCCCC1CCN1c2ccccc2Sc2ccc([S+](C)[O-])cc21 (stereo not given) [MESORIDAZINE] | > 20 | > 20
CCOC(=O)C1=C(C)NC(C)=C(C(=O)OCC)C1c1cccnc1SC [MESUDIPINE] | > 20 | > 20
CC(=O)Nc1cccc(O)c1 [METACETAMOL] | > 20 | > 20
COCC1CN=C(c2ccccc2Cl)c2cc(Br)ccc2N1C (stereo not given) [METACLAZEPAM] | > 20 | > 20
COc1cc2c(cc1OC)C(=O)OC2 [METAMECONINE] | > 20 | > 20
Cc1c(N(C)CS(=O)(=O)O)c(=O)n(-c2ccccc2)n1C [METAMIZOLE] | > 20 | > 20
CNCC(O)c1ccc(O)c(OC)c1 (stereo not given) [METANEPHRINE] | > 20 | > 20
C[C@H](N)[C@H](O)c1cccc(O)c1 [METARAMINOL] | > 20 | > 20
Cc1cc(C)cc(OCC2CNC(=O)O2)c1 (stereo not given) [METAXALONE] | > 20 | > 20

SMILES | IC50 [µM] | IC50 (read-out: pIC50 (converted)) [µM]
CN1C[C@H](CNC(=O)OCc2ccccc2)C[C@@H]2c3cccc4c3c(cn4C)C[C@H]21 [METERGOLINE] | > 20 | > 20
CN(C)C(=N)NC(=N)N [METFORMIN] | > 20 | > 20
CC(=O)OC(C)C[N+](C)(C)C (stereo not given) [METHACHOLINE] | > 20 | > 20
C=C1c2cccc(O)c2C(=O)C2=C(O)[C@]3(O)C(=O)C(C(N)=O)=C(O)[C@@H](N(C)C)[C@@H]3[C@@H](O)[C@H]12 [METHACYCLINE] | > 20 | > 20
C=CC(C)NC(=S)NNC(=S)NC (stereo not given) [METHALLIBURE] | > 20 | > 20
CN[C@@H](C)Cc1ccccc1 [METHAMPHETAMINE] | > 20 | > 20
O=C(NNCS(=O)(=O)O)c1ccncc1 [METHANIAZIDE] | > 20 | > 20
Cc1ccccc1-n1c(C)nc2ccccc2c1=O [METHAQUALONE] | > 20 | > 20
CCC1(CC)C(=O)NC(=O)N(C)C1=O [METHARBITAL] | > 20 | > 20
CC(=O)/N=c1/sc(S(N)(=O)=O)nn1C [METHAZOLAMIDE] | > 20 | > 20
C1N2CN3CN1CN(C2)C3 [METHENAMINE] | > 20 | > 20
COc1cccc(OC)c1C(=O)N[C@@H]1C(=O)N2[C@@H]1SC(C)(C)[C@@H]2C(=O)O [METHICILLIN] | > 20 | > 20
Cn1ccnc1S [METHIMAZOLE] | > 20 | > 20
COc1ccccc1OCC(O)COC(N)=O (stereo not given) [METHOCARBAMOL] | > 20 | > 20
COc1ccccc1CNCCCCCCNCCCCCCCCNCCCCCCNCc1ccccc1OC [METHOCTRAMINE] | > 20 | > 20
COc1cc2c(cc1OC)C(CCc1ccc(Cl)cc1)N(C)CC2 (stereo not given) [METHOPHOLINE] | > 20 | > 20
COc1ccc(OC)c(C(O)C(C)N)c1 (stereo not given) [METHOXAMINE] | > 20 | > 20
COc1c2occc2cc2ccc(=O)oc12 [METHOXSALEN] | > 20 | > 20
CNC(C)Cc1ccccc1OC (stereo not given) [METHOXYPHENAMINE] | > 20 | > 20
C[N+]1(C)[C@@H]2C[C@@H](OC(=O)[C@H](CO)c3ccccc3)C[C@H]1[C@@H]1O[C@@H]12 [METHSCOPOLAMINE] | > 20 | > 20
